{
  "source": "patent US20250177357A1",
  "about": "“METHODS FOR TREATING HYPERTROPHIC CARDIOMYOPATHY” (priority 2021, published 2025)",
  "assay_type_in_all_cases": "in vivo, human",
  "key": {"[1]": {"assay": "Phase 1 plasma pharmacokinetics, single-ascending dose cohorts", "protocol": "Single-ascending dose (SAD) cohorts. The SAD portion of the study used a randomized, double-blind, placebo-controlled, sequential, escalating-dose design, in which participants received single-ascending oral doses of the study drug. Seven cohorts were dosed in sequence (FIG. 2).\nPharmacokinetic analyses. For all study groups, blood samples for PK assessment were obtained pre-dose, up to 12 times daily on day 1, and then at regular intervals throughout the study. Blood samples were collected according to the following schedule: SAD Cohorts: Day 1: pre-dose and 0.25, 0.5, 1, 1.5, 2, 2.5, 3, 4, 6, 8, 12, 16, 24, 36, 48, 72, 96, and 216 h post dose. MAD Cohorts (14-day Dosing): Day 1: pre-dose and 0.25, 0.5, 1, 1.5, 2, 2.5, 3, 4, 6, 8, and 12 h post dose; Days 2, 4, 5, 6, and 9: pre-dose (corresponding to trough samples following dosing on days 1, 3, 4, 5, and 8) and 1.5 h post dose; Days 3, 7, 8, 10, 11, 12, and 13: pre-dose (corresponding to trough samples following dosing on days 2, 6, 7, 9, 10, 11, and 12); Day 14: pre-dose and 0.25, 0.5, 1.5, 2, 2.5, 3, 4, 6, 8, 12, 16, 24, 36, 48, 72, and 168 h post dose. MAD Cohort (17-Day Dosing): Day 1: pre-dose and 0.25, 0.5, 1, 1.5, 2, 2.5, 3, 4, 6, 8, and 12 h post dose; Days 2, 4, 5, 6, and 9: pre-dose (corresponding to trough samples following dosing on days 1, 3, 4, 5, and 8) and 1.5 h post dose; Days 3, 7, 8, 10, 11, 12, 13, 14, 15, and 16: pre-dose (corresponding to trough samples following dosing on days 2, 6, 7, 9, 10, 11, and 12); Day 17: pre-dose and 0.25, 0.5, 1.5, 2, 2.5, 3, 5, 7, 9, 12, 24, 36, 48, 72, and 168 h post dose. CYPD6-PM Cohort: Day 1: pre-dose and 0.25, 0.5, 1, 1.5, 2, 2.5, 3, 4, 6, 8, 12, 16, 24, 36, 48, 72, 96, 216, 312, and 552 h post dose. Food-Effect Cohort: Day 1: pre-dose and 0.25, 0.5, 1, 1.5, 2, 2.5, 3, 4, 6, 8, 12, 16, 24, 36, 48, 72, 96, 144, and 216 h post dose. Standard non-compartmental methods were used to calculate PK parameters using Phoenix® WinNonlin® Version 7.0; actual sample collection times were utilized.\nFor the MAD cohort, the parameters were AUC24 and Cmax on day 1, plus AUC to the […] (AUCtau) and Cmax on day 14 or 17. The statistical linear relationship between the ln-transformed PK parameters and the ln-transformed dose was verified by including the quadratic (ln Dose)^2 and cubic (ln Dose)^3 effects. […] The dose-proportionality analysis was performed using SAS® PROC MIXED."}, "[2]": {"tested_on": "healthy adults", "assay": "Phase 1 ECG (QTcF), vital signs and clinical laboratory safety", "protocol": "Safety and tolerability. Safety was assessed by the incidence of adverse events (AEs) and by incidence of reduced LVEF. Treatment-emergent AEs (TEAE) were defined as AEs that began or increased after study drug administration. All AEs were coded using the Medical Dictionary for Regulatory Activities version 21.1 and graded using the National Cancer Institute Common Terminology Criteria for AEs (version 4.03) 5-point severity scale. Each AE was judged as either related or unrelated to the study drug by the treating investigator. Clinical laboratory tests were obtained at regular intervals in all cohorts.\nFor safety monitoring, participants in all cohorts had periodic echocardiograms, which were assessed by a cardiologist. In the SAD and MAD cohorts, echocardiograms were also reviewed by an echocardiography core laboratory for PD assessments, as described below. In addition, participants in all cohorts were monitored with continuous 12-lead ECG recording using Holter monitors. For safety monitoring, a single 12-lead ECG was extracted at screening, pre-dose, and periodically throughout follow-up, and interpreted by the investigator. In the SAD, MAD, and CYP2D6-PM cohorts, cardiodynamic ECGs (triplicate 10-second, 12-lead ECG recordings) were obtained prior to the corresponding PK blood and ECG intervals quantitated by qualified readers."}, "[3]": {"tested_on": "patients with symptomatic obstructive HCM (oHCM)", "assay": "Phase 2 trial in oHCM: safety", "from_the_text": "Patients up-titrated to Dose 2 if either of the following conditions were met on echocardiography: (1) resting LVOT-G≥30 mmHg and the biplane LVEF≥50%; or (2) resting LVOT-G<30 mmHg, post-Valsalva LVOT-G≥50 mmHg, and the biplane LVEF≥50%. Otherwise, the patient remains on Dose 1. If LVEF is <50% at Week 2, the patient was down-titrated to placebo.\nPatients were escalated to the next higher dose if either of the following conditions were met on echocardiography: (1) resting LVOT-G≥30 mmHg and the biplane LVEF≥50%; or (2) resting LVOT-G<30 mmHg, post-Valsalva LVOT-G≥50 mmHg, and the biplane LVEF≥50%. Otherwise, the patient remained on the same dose. If LVEF was <50% at Week 4, the patient was returned to a prior dose level or to placebo if the patient was on Dose 1."}},
  "data": [
    {"smiles": "CCc1nc(-c2ccc3c(c2)CC[C@H]3NC(=O)c2cnn(C)c2)no1", "note": "[aficamten, (R)—N-(5-(5-ethyl-1,2,4-oxadiazol-3-yl)-2,3-dihydro-1H-inden-1-yl)-1-methyl-1H-pyrazole-4-carboxamide]", "values": [
      {"measurement": "Maximum time to maximum observed concentration across all participants", "setting": "[1]; SAD cohorts", "result": 4.0, "unit": "h"},
      {"measurement": "CL/F, mean ± SD", "setting": "[1]; single oral dose 3 mg, n = 5", "result": "4.2 ± 3.1", "unit": "L/h"},
      {"measurement": "CL/F, mean ± SD", "setting": "[1]; single oral dose 10 mg, n = 4", "result": "3.0 ± 0.7", "unit": "L/h"},
      {"measurement": "CL/F, mean ± SD", "setting": "[1]; single oral dose 25 mg, n = 6", "result": "3.6 ± 0.5", "unit": "L/h"},
      {"measurement": "CL/F, mean ± SD", "setting": "[1]; single oral dose 40 mg, n = 5", "result": "3.4 ± 0.6", "unit": "L/h"},
      {"measurement": "CL/F, mean ± SD", "setting": "[1]; single oral dose 50 mg, n = 9", "result": "3.8 ± 1.1", "unit": "L/h"},
      {"measurement": "Serum chemistry, hematology, urinalysis findings", "setting": "[2]; all Phase 1 cohorts", "result": "No clinically significant serum chemistry, hematology, or urinalysis findings"},
      {"measurement": "Increases in QTcF interval", "setting": "[2]; all cohorts (exception: 1 placebo participant)", "result": "≤ 30", "unit": "ms"},
      {"measurement": "QTcF at baseline or any assessment during the dosing interval", "setting": "[2]; all cohorts, exception of 2 individuals with baseline QTcF ≥440 ms", "result": "≤ 450", "unit": "ms"},
      {"measurement": "QT effect in cardiodynamic assessments", "setting": "[2]; single or multiple doses", "result": "no evidence of a positive QT effect"},
      {"measurement": "Patients with LVEF <50%", "setting": "[3]; Cohort 1", "result": "No patients"},
      {"measurement": "Patients with AEs related to study drug (per investigator)", "setting": "[3]; Cohort 1, 21 randomized", "result": "3 (14.3) N (%)"},
      {"measurement": "Patients with TEAEs leading to drug interruption or termination", "setting": "[3]; Cohort 1, 21 randomized", "result": "0 N (%)"},
      {"measurement": "Patients with TESAEs", "setting": "[3]; Cohort 1, 21 randomized", "result": "2 (9.5) N (%)"},
      {"measurement": "Patients with at least one TEAE", "setting": "[3]; Cohort 1, 21 randomized", "result": "17 (81) N (%)"},
      {"measurement": "Patients with fatal TEAEs", "setting": "[3]; Cohort 1, 21 randomized", "result": "0 N (%)"},
      {"measurement": "TEAE of LVEF <50% (Core Lab)", "setting": "[3]; Cohort 1, 21 randomized", "result": "0 N (%)"},
      {"measurement": "Patients with AEs related to study drug (per investigator)", "setting": "[3]; Cohort 2, 20 randomized", "result": "1 (5.0) N (%)"},
      {"measurement": "Patients with TEAEs leading to drug interruption or termination", "setting": "[3]; Cohort 2, 20 randomized", "result": "0 N (%)"},
      {"measurement": "Patients with TESAEs", "setting": "[3]; Cohort 2, 20 randomized", "result": "0 N (%)"},
      {"measurement": "Patients with at least one TEAE", "setting": "[3]; Cohort 2, 20 randomized", "result": "15 (75) N (%)"},
      {"measurement": "Patients with fatal TEAEs", "setting": "[3]; Cohort 2, 20 randomized", "result": "0 N (%)"},
      {"measurement": "TEAE of LVEF <50% (Core Lab)", "setting": "[3]; Cohort 2, 20 randomized", "result": "2 (10) N (%)"},
      {"measurement": "Patients with transient LVEF reduction to <50% requiring down titration", "setting": "[3]; Cohort 2, on 20 mg, remaining above 40%", "result": "one patient"},
      {"measurement": "Interruptions or discontinuations of treatment", "setting": "[3]; Cohorts 1 and 2", "result": "No interruptions or discontinuations"},
      {"measurement": "Treatment-related serious adverse events", "setting": "[3]; Cohorts 1 and 2, 10 weeks, listed as CK-274", "result": "no treatment related serious adverse events"},
      {"measurement": "Patients with AEs related to study drug (per investigator)", "setting": "[3]; Total, 54 patients", "result": "6 (11.1) N (%)"},
      {"measurement": "Patients with TEAEs leading to drug interruption or termination", "setting": "[3]; Total, 54 patients", "result": "0 N (%)"},
      {"measurement": "Patients with TESAEs", "setting": "[3]; Total, 54 patients", "result": "2 (3.7) N (%)"},
      {"measurement": "Patients with at least one TEAE", "setting": "[3]; Total, 54 patients", "result": "41 (75.9) N (%)"},
      {"measurement": "Patients with fatal TEAEs", "setting": "[3]; Total, 54 patients", "result": "0 N (%)"},
      {"measurement": "TEAE of LVEF <50% (Core Lab)", "setting": "[3]; Total, 54 patients", "result": "2 (3.7) N (%)"},
      {"measurement": "Time for LVEF to return towards baseline", "setting": "[3]; both cohorts", "result": "within two weeks after the end of treatment"}
    ]}
  ]
}
